Data published in ChEMBL document CHEMBL1201862, “PubChem BioAssay data set” (2004).
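Five compound concentrations were applied to cells in 96-well plates for 48 hours; endpoints were derived by simple linear interpolation of the resulting dose-response curve. GI50 = concentration required for 50% inhibition of growth.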 Activity calls are given as the source filed them. No stated cut-off is given here; in the data, active = GI50 up to about 1.1 µM and inactive = higher.

Experiments:
Assay in all cases: DTP human tumour cell line panel, 48 h
[1] = tested on: A498
[2] = tested on: A549
[3] = tested on: DU-145
[4] = tested on: EKVX
[5] = tested on: HCT-15
[6] = tested on: IGROV-1
[7] = tested on: MCF7
[8] = tested on: NCI-H226
[9] = tested on: NCI-H23
[10] = tested on: NCI-H460
[11] = tested on: OVCAR-4
[12] = tested on: OVCAR-5
[13] = tested on: SF-295
[14] = tested on: SK-MEL-28
[15] = tested on: SNB-75
[16] = tested on: SW-620
[17] = tested on: TK-10
[18] = tested on: U-251
[19] = tested on: UACC-257
[20] = tested on: UO-31

CCSC(=O)N1c2ccc(OC)cc2C=CC1C#N (stereo not given)
GI50 [1]: < 0.01 µM (active) | GI50 [2]: 0.00565 µM (active) | GI50 [3]: 0.00168 µM (active) | GI50 [4]: 0.392 µM (active) | GI50 [5]: 0.00734 µM | GI50 [6]: 0.00373 µM (active) | GI50 [7]: 0.00883 µM (active) | GI50 [8]: 0.00759 µM (active) | GI50 [9]: 0.00509 µM (active) | GI50 [10]: 0.00423 µM (active) | GI50 [11]: 0.308 µM (active) | GI50 [12]: < 0.00993 µM (active) | GI50 [13]: 0.00405 µM (active) | GI50 [14]: 0.308 µM (active) | GI50 [15]: 0.00417 µM (active) | GI50 [16]: 0.00356 µM (active) | GI50 [17]: 0.00971 µM (active) | GI50 [18]: 0.00403 µM (active) | GI50 [19]: < 0.01 µM (active) | GI50 [20]: < 0.01 µM (active)

CN(C)c1ccc(C=c2c3ccccc3n3c2c2ccccc2[n+]3C)cc1
GI50 [1]: 1.69 µM (inactive) | GI50 [2]: 3.73 µM (inactive) | GI50 [3]: 1.3 µM (inactive) | GI50 [4]: 2.65 µM (inactive) | GI50 [5]: 0.456 µM | GI50 [6]: 0.82 µM (active) | GI50 [7]: 0.822 µM (active) | GI50 [8]: 3.08 µM (inactive) | GI50 [9]: 1.01 µM (active) | GI50 [10]: 2.84 µM (inactive) | GI50 [11]: 1.18 µM (inactive) | GI50 [12]: 3.02 µM (inactive) | GI50 [13]: 1.52 µM (inactive) | GI50 [14]: 0.521 µM (active) | GI50 [15]: 2.17 µM (inactive) | GI50 [16]: 0.164 µM (active) | GI50 [17]: 1.2 µM (inactive) | GI50 [18]: 0.196 µM (active) | GI50 [19]: 0.33 µM (active) | GI50 [20]: 0.836 µM (active)

O=C1/C(=C\c2ccccc2)c2ccccc2N1Cc1ccccc1
GI50 [1]: > 10 µM (inactive) | GI50 [2]: 11.6 µM (inactive) | GI50 [3]: 12.4 µM (inactive) | GI50 [4]: 12.5 µM (inactive) | GI50 [5]: 9.46 µM | GI50 [6]: 10.7 µM (inactive) | GI50 [7]: 3.45 µM (inactive) | GI50 [8]: 10.8 µM (inactive) | GI50 [9]: 10.7 µM (inactive) | GI50 [10]: 12.8 µM (inactive) | GI50 [11]: 12.6 µM (inactive) | GI50 [12]: 10.4 µM (inactive) | GI50 [13]: 11.4 µM (inactive) | GI50 [14]: 11.1 µM (inactive) | GI50 [15]: 9.66 µM (inactive) | GI50 [16]: 9.84 µM (inactive) | GI50 [17]: 12.9 µM (inactive) | GI50 [18]: 8.69 µM (inactive) | GI50 [19]: 10.9 µM (inactive) | GI50 [20]: 10 µM (inactive)

COc1ccc2c(c1)C(=O)CC1c3cnccc3C(=O)N21 (stereo not given)
GI50 [1]: > 100 µM (inactive) | GI50 [2]: > 100 µM (inactive) | GI50 [3]: > 100 µM (inactive) | GI50 [4]: > 79.4 µM (inactive) | GI50 [5]: > 100 µM | GI50 [6]: > 85.1 µM (inactive) | GI50 [7]: > 100 µM (inactive) | GI50 [8]: > 100 µM (inactive) | GI50 [9]: > 100 µM (inactive) | GI50 [10]: > 67.9 µM (inactive) | GI50 [11]: > 100 µM (inactive) | GI50 [12]: > 100 µM (inactive) | GI50 [13]: > 100 µM (inactive) | GI50 [14]: > 91.2 µM (inactive) | GI50 [15]: > 100 µM (inactive) | GI50 [16]: > 100 µM (inactive) | GI50 [17]: > 100 µM (inactive) | GI50 [18]: > 73.5 µM (inactive) | GI50 [19]: > 100 µM (inactive) | GI50 [20]: 49.1 µM (inactive)

c1csc(-c2ccsc2-c2ccsc2)c1
GI50 [1]: > 100 µM (inactive) | GI50 [2]: 43.1 µM (inactive) | GI50 [3]: > 100 µM (inactive) | GI50 [4]: 53.8 µM (inactive) | GI50 [5]: 39.8 µM | GI50 [6]: > 100 µM (inactive) | GI50 [7]: > 100 µM (inactive) | GI50 [8]: 0.0264 µM (active) | GI50 [9]: 43.5 µM (inactive) | GI50 [10]: 97.9 µM (inactive) | GI50 [11]: 84.1 µM (inactive) | GI50 [12]: > 100 µM (inactive) | GI50 [13]: 57.4 µM (inactive) | GI50 [14]: > 100 µM (inactive) | GI50 [15]: > 100 µM (inactive) | GI50 [16]: > 100 µM (inactive) | GI50 [17]: > 100 µM (inactive) | GI50 [18]: > 100 µM (inactive) | GI50 [19]: > 100 µM (inactive) | GI50 [20]: 80 µM (inactive)

CCOCC(=O)N[C@H]1CCc2cc(OC(=O)COCC)c(OC)c(OC)c2-c2ccc(SC)c(=O)cc21
GI50 [1]: 0.0472 µM (active) | GI50 [2]: 0.0355 µM (active) | GI50 [3]: 0.0222 µM (active) | GI50 [4]: 0.0571 µM (active) | GI50 [5]: 0.0551 µM | GI50 [6]: 0.0324 µM (active) | GI50 [7]: 0.00686 µM (active) | GI50 [8]: 0.0301 µM (active) | GI50 [9]: 0.0273 µM (active) | GI50 [10]: 0.0327 µM (active) | GI50 [11]: 10.5 µM (inactive) | GI50 [12]: 0.604 µM (active) | GI50 [13]: 0.0157 µM (active) | GI50 [14]: 0.0143 µM (active) | GI50 [15]: 0.0461 µM (active) | GI50 [16]: 0.0171 µM (active) | GI50 [17]: 0.459 µM (active) | GI50 [18]: 0.0275 µM (active) | GI50 [19]: 0.00902 µM (active) | GI50 [20]: 0.914 µM (active)

Cc1c(N)nc(C2CC(=O)N2CC(N)C(N)=O)nc1C(=O)NC(C(=O)NC(C)C(O)C(C)C(=O)NC(C(=O)NCCc1nc(-c2nc(C(=O)NCCNCC(C)O)cs2)cs1)C(C)O)C(OC1OC(CO)C(O)C(O)C1OC1OC(CO)C(O)C(OC(N)=O)C1O)c1c[nH]cn1 (stereo not given)
GI50 [1]: 5.35 µM (inactive) | GI50 [2]: 3.28 µM (inactive) | GI50 [3]: 7.87 µM (inactive) | GI50 [4]: > 41.1 µM (inactive) | GI50 [5]: 2.73 µM | GI50 [6]: 37.2 µM (inactive) | GI50 [7]: 13.8 µM (inactive) | GI50 [8]: 0.0223 µM (active) | GI50 [9]: 0.437 µM (active) | GI50 [10]: 0.1 µM (active) | GI50 [11]: 7.57 µM (inactive) | GI50 [12]: 2.67 µM (inactive) | GI50 [13]: 0.167 µM (active) | GI50 [14]: 43.2 µM (inactive) | GI50 [15]: 0.344 µM (active) | GI50 [16]: 13.9 µM (inactive) | GI50 [17]: 37.6 µM (inactive) | GI50 [18]: 1.83 µM (inactive) | GI50 [19]: 0.528 µM (active) | GI50 [20]: 0.813 µM (active)

Oc1ccc2ccccc2c1Cc1c(O)ccc2ccccc12
GI50 [1]: 18.2 µM (inactive) | GI50 [2]: 18.1 µM (inactive) | GI50 [3]: 17.9 µM (inactive) | GI50 [4]: 16.2 µM (inactive) | GI50 [5]: 14.8 µM | GI50 [6]: 4.04 µM (inactive) | GI50 [7]: 21.8 µM (inactive) | GI50 [8]: 20.9 µM (inactive) | GI50 [9]: 16.1 µM (inactive) | GI50 [10]: 26.5 µM (inactive) | GI50 [11]: 13.1 µM (inactive) | GI50 [12]: 15.6 µM (inactive) | GI50 [13]: 16.7 µM (inactive) | GI50 [14]: 21.6 µM (inactive) | GI50 [15]: 20.5 µM (inactive) | GI50 [16]: 16 µM (inactive) | GI50 [17]: 21 µM (inactive) | GI50 [18]: 15.4 µM (inactive) | GI50 [19]: 19.5 µM (inactive) | GI50 [20]: 15 µM (inactive)
